Several values for one entry are separate records, joined by “and”; a condition that tells them apart may be missing. Equal entries are not always repeated. Where two headings read alike, the source gives them in different places.
Legend:
[1] = target: T1, human serum albumin (HSA) (Homo sapiens, UniProt P02768); assay: Taylor dispersion (OneStep) SPR, kinetic analysis of flavonoids on immobilized HSA; type: binding; details: for kon / koff: pH 7.4, HSA
T1 construct: purchased Sigma Aldrich
Procedure: (§1) Hydroxyl-gel modified sensor chips and coupling reagents for the Pioneer SPR instrument (SensiQ Technologies, Oklahoma City, OK, USA) were obtained from Xantec (Duesseldorf, Germany). […] All analyses were performed at 25 °C. 10 mM HEPES (pH 7.4) with 150 mM NaCl, 0.005% Tween-20, 1.26 mM EDTA, and 5% DMSO was used as the running buffer.
(§2) HSA (essentially fatty acid free; Sigma Aldrich, St. Louis, MO, USA) and GSTP1 (Fitzgerald Industries International, North Acton, MA, USA) (50 μg/mL in 10 mM sodium acetate, pH 5.0) were immobilized on polycarboxylate hydrogel sensor chip surfaces using a standard amine-coupling protocol (flow rate of 10 μL/min) to obtain a density of 10–12 kRU [18]. Each of the four flavonoids was dissolved in DMSO to achieve a high concentration, then further diluted to a final 5% DMSO concentration in running buffer. Typically, the flavonoid concentration series spanned 0.01–500 μM. Five blanks were analyzed at the beginning of the analysis, and the remaining blanks were randomly injected throughout the analysis for double-referencing purposes.
(§3) In this study, we explored the SensiQ Pioneer’s dynamic SPR capability (also known as the OneStep® injection method), which is essentially a Taylor dispersion to create a gradient injection to quantify biomolecular interactions. In the Taylor dispersion method, analyte concentration is initially uniform, but it gradually changes into a sigmoidal gradient due to the combined actions of analyte diffusion and convective laminar flow within the dispersion capillary. This method saves sample preparation time, lessens the need for limited-supply sample materials, and eliminates possible human errors in the preparation of sample dilutions. Since the compounds are screened over a broader dilution range, content-rich data can be obtained from the preliminary screening step itself, and oftentimes, secondary screening can be avoided. A Taylor dispersion gradient injection of sucrose (3% w/v in running buffer) was performed in parallel as a diffusion standard to account for experimental deviations such as buffer viscosity, flow rate, temperature, etc. The analytes were injected in running buffer using the same Taylor diffusion gradient injection mode with a flow rate of 25 μL/min.
(§4) SPR response data (sensorgrams) were zeroed at the beginning of each injection and double referenced. For kinetic analyses, the responses were plotted against the analyte concentration and fit to a 1:1 (A + B = AB) or 1:2 (A + 2B = AB1 + AB2) binding model using Qdat analysis software (SensiQ Technologies, Inc., Oklahoma City, OK, USA) and GraphPad Prism 5.04 (GraphPad Software Inc., La Jolla, CA, USA).

[2] = target: T2, glutathione S-transferase pi isoform-1 (GSTP1) (Homo sapiens, UniProt P09211); assay: Taylor dispersion (OneStep) SPR, equilibrium analysis of flavonoids on immobilized GSTP1; details: GSTP1, one binding site, 1:1 equilibrium analysis model, 25 °C
T2 construct: purchased Fitzgerald Industries International
T2 sequence (P09211 whole entry, canonical isoform): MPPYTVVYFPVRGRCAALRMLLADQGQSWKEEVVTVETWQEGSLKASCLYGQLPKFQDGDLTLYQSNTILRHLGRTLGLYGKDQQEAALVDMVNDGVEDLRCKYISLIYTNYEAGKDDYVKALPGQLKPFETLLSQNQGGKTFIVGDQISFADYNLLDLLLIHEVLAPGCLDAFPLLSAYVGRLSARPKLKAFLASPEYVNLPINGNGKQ
Procedure: as §1, §2, §3
as §4, with “USA). […]” for “USA).”

[3] = target: T1, human serum albumin (HSA); assay: Conventional (standard fixed-concentration injection) SPR, HSA-quercetin validation; type: binding
Procedure: as §1, §2
For assay validation, a conventional SPR method was used as a comparison. The interaction of HSA with quercetin was chosen for validation. For the conventional SPR method, analyte dilutions were prepared manually in a twofold dilution series starting with 500 μM as the highest concentration. […]

[4] = HSA, Site 1, 25 °C, OneStep SPR, global kinetic fit (1:2 model; kaempferol 1:1), read-out: KD (equilibrium dissociation constant), Site 1
[5] = human, Site 1, 25 °C, OneStep SPR, global kinetic fit (1:2 model; kaempferol 1:1), read-out: ka (association rate constant), Site 1
[6] = human, Site 1, 25 °C, OneStep SPR, global kinetic fit (1:2 model; kaempferol 1:1), read-out: kd (dissociation rate constant), Site 1
[7] = human, Site 2, 25 °C, OneStep SPR, 1:2 model, read-out: ka (association rate constant), Site 2
[8] = human, Site 2, 25 °C, OneStep SPR, 1:2 model, read-out: kd (dissociation rate constant), Site 2

T1 sequence (P02768 25-609): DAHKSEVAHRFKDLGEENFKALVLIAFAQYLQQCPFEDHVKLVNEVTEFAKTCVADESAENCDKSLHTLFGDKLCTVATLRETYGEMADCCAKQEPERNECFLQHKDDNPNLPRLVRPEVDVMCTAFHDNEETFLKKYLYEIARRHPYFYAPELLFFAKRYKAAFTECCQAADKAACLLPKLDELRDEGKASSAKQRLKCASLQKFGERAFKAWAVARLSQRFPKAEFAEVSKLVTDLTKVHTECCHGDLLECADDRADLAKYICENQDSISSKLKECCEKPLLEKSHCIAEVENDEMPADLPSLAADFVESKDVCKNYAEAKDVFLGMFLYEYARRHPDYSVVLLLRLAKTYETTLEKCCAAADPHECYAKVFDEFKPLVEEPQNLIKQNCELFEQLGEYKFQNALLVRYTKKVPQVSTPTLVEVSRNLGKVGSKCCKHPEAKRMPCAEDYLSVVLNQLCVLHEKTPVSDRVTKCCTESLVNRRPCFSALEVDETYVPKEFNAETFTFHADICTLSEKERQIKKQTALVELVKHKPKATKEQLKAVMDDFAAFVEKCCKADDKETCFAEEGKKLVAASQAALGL

Compound | Kd [1, 4] [µM] | kon [1, 5] [M⁻¹ s⁻¹] | koff [1, 6] [s⁻¹] | Kd [2] | Kd ([1]; human, pH 7.4) [µM] | kon [1, 7] [M⁻¹ s⁻¹] | koff [1, 8] [s⁻¹] | Kd ([3]; HSA, conventional SPR, two fold dilution series from 500 μM, quadruplicate, 1:2 model, read-out: KD1 (affinity towards HSA)) [µM] | Kd ([3]; human, pH 7.4) [µM]
O=c1c(O)c(-c2ccc(O)cc2)oc2cc(O)cc(O)c12 [Kaempferol, kaempferol] | 0.037 | 48400 ± 6e+06 | 0.002 ± 0.002 | 45 ± 0.2 µM |  |  |  |  | 
O=c1cc(-c2ccc(O)c(O)c2)oc2cc(O)cc(O)c12 [Luteolin, luteolin] | 63.4 | 3200 ± 300000 | 0.205 ± 0.005 | 31.5 ± 0.2 µM | 406 | 17.1 ± 1 | 0.007 ± 0.001 |  | 
O=c1c(O)c(-c2ccc(O)c(O)c2)oc2cc(O)cc(O)c12 [Quercetin, quercetin] | 0.063 | 240000 ± 1e+08 | 0.016 ± 0.003 | ~27.5 µM and 27.5 µM | > 500 | 100 ± 1000 | 0.405 ± 0.004 | 0.068 ± 0.002 | > 500
Oc1ccc(/C=C/c2cc(O)cc(O)c2)cc1 [Resveratrol, resveratrol] | 0.4 | 7000 ± 200000 | 0.003 ± 0.002 | 78 ± 0.1 µM | 180 | 2900 ± 600000 | 0.52 ± 0.003 |  | 
